Laboratory results as given in patent US20140315901A1, “Arylpyrrolopyridine derived compounds as LRRK2 inhibitors” (H. Lundbeck A/S, priority 2013, published 2014).

What was measured:
LRRK2 G2019S = molecular target: T1, LRRK2 G2019S (Homo sapiens, UniProt Q5S007, G2019S); experiment: LanthaScreen TR-FRET LRRK2 G2019S kinase activity assay; type: biochemical; conditions: 250 pM LRRK2 G2019S kinase (residues 970 to 2527), 1.3 mM ATP, 0.4 μM fluorescein-LRRKtide, 2 hours at 30° C.; logarithmic average
T1 construct: purchased Invitrogen (Life Technologies Corporation)
Method: (§1) LRRK2 kinase activity is measured using a LanthaScreen kinase activity assay available from Invitrogen (Life Technologies Corporation). The assay is a homogeneous time resolved-fluorescence resonance energy transfer (TR-FRET) assay that measures phosphorylation of a fluorescein-labelled peptide substrate (fluorescein-LRRKtide, fluorescein-[…]) (SEQ ID NO 1) as a result of LRRK2 kinase activity. The phosphorylated peptide is recognized by a terbium-labelled phospho-specific anti-LRRKtide antibody and, subsequently, the phosphorylated LRRKtide can be quantified by the extent of TR-FRET between the terbium donor and fluorescein acceptor.
(§2) The LRRK2 kinase is obtained from Invitrogen (Life Technologies Corporation) and comprises residues 970 to 2527 of the full length human wild-type LRRK2 kinase or a similar sequence with the G2019S mutation. As discussed above, this mutation increases the kinase activity relative to the wild-type. The kinase reactions are performed in a 20 μL volume in 384-well plates. The kinase reaction buffer consists of 50 mM Tris pH 8.5, 0.01% BRIJ-35, 10 mM MgCl2, 1 mM EGTA, and 2 mM DTT.
(§3) In the assay, 1 nM LRRK2 WT or 250 pM LRRK2 G2019S kinase is incubated with the test compound (typically at 0 to 30 μM) for 30 minutes before the kinase reaction is initiated by addition of 1.3 mM ATP and 0.4 μM fluorescein-LRRKtide. The reaction mixture (20 μl total volume) is incubated for 2 hours at 30° C. before the reaction is terminated by addition of 10 mM EDTA and 1 nM terbium-labelled anti-phospho-LRRKtide antibody (final volume […]). The mixture is further incubated for 30 minutes at RT. TR-FRET is measured by excitation of the terbium-donor with 340 nm light and subsequent (delay time 100 μs) measurement of terbium and fluorescein emission at 495 nm and 520 nm, respectively, over a time window of 1000 μs. The measurement is repeated 10 times for fluorescein and 10 times for terbium emission with a 2000 μs time window between repeats. TR-FRET measurements are performed on a Biomek Synergy plate. The TR-FRET signal is calculated as the emission-ratio at 520 nm over […].
(§4) Test compound potency (IC50) was estimated by nonlinear regression using the sigmoidal dose-response (variable slope) using Xlfit 4 (IDBS, Guildford, Surrey, UK, model 205). y=(A+((B−A)/(1+((C/x)̂D)))), where y is the normalized TR-TRET ratio measurement for a given concentration of test compound, x is the concentration of test compound, A is the estimated efficacy (% inhibition) at infinite compound dilution, and B is the maximal efficacy (% inhibition). C is the IC50 value and D is the Hill slope coefficient. IC50 estimates were obtained from independent experiment and the logarithmic average was calculated.

LRRK2 WT = molecular target: T2, LRRK2 WT (Homo sapiens, UniProt Q5S007); experiment: LanthaScreen TR-FRET LRRK2 wild-type kinase activity assay; type: biochemical; conditions: 1 nM LRRK2 WT kinase (residues 970 to 2527), 1.3 mM ATP, 0.4 μM fluorescein-LRRKtide, 2 hours at 30° C.; logarithmic average
T2 construct: comprises residues 970 to 2527 of the full length human wild-type LRRK2 kinase; purchased Invitrogen (Life Technologies Corporation)
Method: as §1, §2, §3, §4

T1 sequence (Q5S007 970-2527 G2019S): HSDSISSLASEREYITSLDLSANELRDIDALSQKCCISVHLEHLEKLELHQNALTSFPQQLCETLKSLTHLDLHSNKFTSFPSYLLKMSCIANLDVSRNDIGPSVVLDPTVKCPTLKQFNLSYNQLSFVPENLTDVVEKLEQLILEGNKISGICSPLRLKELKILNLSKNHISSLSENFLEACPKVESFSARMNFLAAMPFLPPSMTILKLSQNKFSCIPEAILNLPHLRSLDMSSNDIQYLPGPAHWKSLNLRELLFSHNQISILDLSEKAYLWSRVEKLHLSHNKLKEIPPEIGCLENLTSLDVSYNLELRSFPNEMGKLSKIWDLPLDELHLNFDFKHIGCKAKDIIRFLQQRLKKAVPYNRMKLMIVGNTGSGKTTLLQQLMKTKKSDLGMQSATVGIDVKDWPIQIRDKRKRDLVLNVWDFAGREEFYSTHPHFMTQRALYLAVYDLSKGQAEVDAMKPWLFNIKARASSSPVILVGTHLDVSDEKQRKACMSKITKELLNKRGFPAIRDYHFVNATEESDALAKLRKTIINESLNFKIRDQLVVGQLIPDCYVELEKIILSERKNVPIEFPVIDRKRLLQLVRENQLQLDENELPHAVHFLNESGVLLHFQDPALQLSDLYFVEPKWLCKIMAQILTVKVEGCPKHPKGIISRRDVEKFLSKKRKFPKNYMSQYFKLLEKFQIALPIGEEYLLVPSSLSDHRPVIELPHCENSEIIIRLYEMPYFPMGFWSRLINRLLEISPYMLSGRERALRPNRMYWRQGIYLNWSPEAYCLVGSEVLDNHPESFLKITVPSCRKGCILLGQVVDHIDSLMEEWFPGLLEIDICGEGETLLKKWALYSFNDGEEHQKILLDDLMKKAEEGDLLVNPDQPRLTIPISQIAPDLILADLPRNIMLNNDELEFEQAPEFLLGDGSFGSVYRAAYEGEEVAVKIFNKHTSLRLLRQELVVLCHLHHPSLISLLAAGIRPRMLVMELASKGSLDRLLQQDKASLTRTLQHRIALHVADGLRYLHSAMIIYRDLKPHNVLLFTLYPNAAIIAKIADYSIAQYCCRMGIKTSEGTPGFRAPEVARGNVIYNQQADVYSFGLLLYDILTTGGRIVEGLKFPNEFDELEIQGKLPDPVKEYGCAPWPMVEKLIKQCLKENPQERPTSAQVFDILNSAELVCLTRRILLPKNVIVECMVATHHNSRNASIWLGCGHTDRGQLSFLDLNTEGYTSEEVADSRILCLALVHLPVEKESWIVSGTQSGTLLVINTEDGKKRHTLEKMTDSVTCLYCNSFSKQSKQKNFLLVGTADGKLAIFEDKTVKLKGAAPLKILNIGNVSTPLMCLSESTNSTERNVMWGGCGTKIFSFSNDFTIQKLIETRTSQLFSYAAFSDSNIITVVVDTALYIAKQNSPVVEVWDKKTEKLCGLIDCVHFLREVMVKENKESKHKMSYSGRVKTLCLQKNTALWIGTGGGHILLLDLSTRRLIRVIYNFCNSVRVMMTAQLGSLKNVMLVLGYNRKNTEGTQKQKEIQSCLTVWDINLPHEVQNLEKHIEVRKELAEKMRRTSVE
T2 sequence (Q5S007 970-2527): as the sequence (Q5S007 970-2527 G2019S) above, with S1050G counted along it

| IC50 (LRRK2 G2019S) [nM] | IC50 (LRRK2 WT) [nM] | Compound |
| --- | --- | --- |
| 201 | 247 | COc1cccc(-c2ccnc3[nH]cc(C#N)c23)c1 [Example 1, 4-(3-Methoxyphenyl)-1H-pyrrolo[2,3-b]pyridine-3-carbonitrile] |
| 154 | 919 | COc1cc(-c2ccnc3[nH]cc(C#N)c23)ccc1CN1CCOCC1 [Example 10, 4-[3-Methoxy-4-(morpholin-4-ylmethyl)phenyl]-1H-pyrrolo[2,3-b]pyridine-3-carbonitrile] |
| 288 | 549 | Cc1cc(-c2ccnc3[nH]cc(C#N)c23)ccc1CN(C)C [Example 8, 4-{4-[(Dimethylamino)methyl]-3-methylphenyl}-1H-pyrrolo[2,3-b]pyridine-3-carbonitrile] |
| 650 | 3870 | N#Cc1c[nH]c2nccc(-c3ccn(CN4CCOCC4)c3)c12 [Example 6, 4-[1-(Morpholin-4-ylmethyl)pyrrol-3-yl]-1H-pyrrolo[2,3-b]pyridine-3-carbonitrile] |
| 527 | 340 | N#Cc1c[nH]c2nc(Nc3ccccn3)cc(-c3ccccc3)c12 [Example 17, 4-Phenyl-6-(pyridin-2-ylamino)-1H-pyrrolo[2,3-b]pyridine-3-carbonitrile] |
| 1310 | 5440 | N#Cc1c[nH]c2nccc(-c3ccc(CN4CCOCC4)cc3)c12 [Example 5, 4-[4-(Morpholin-4-ylmethyl)phenyl]-1H-pyrrolo[2,3-b]pyridine-3-carbonitrile] |
| 509 | 358 | Cc1cncc(-c2cc(Nc3nn(C)cc3C(F)(F)F)nc3[nH]cc(C#N)c23)c1 [Example 18, 6-{[1-Methyl-4-(trifluoromethyl)-1H-pyrazol-3-yl]amino}-4-(5-methylpyridin-3-yl)-1H-pyrrolo[2,3-b]pyridine-3-carbonitrile] |
| 164 | 97 | Cn1cc(Nc2cc(-c3ccccc3)c3c(C#N)c[nH]c3n2)cn1 [Example 16, 6-[(1-Methylpyrazol-4-yl)amino]-4-phenyl-1H-pyrrolo[2,3-b]pyridine-3-carbonitrile] |
| 851 | 1280 | N#Cc1c[nH]c2nccc(-c3ccsc3)c12 [Example 4, 4-(Thiophen-3-yl)-1H-pyrrolo[2,3-b]pyridine-3-carbonitrile] |
| 26 | 149 | CCc1cc(-c2ccnc3[nH]cc(C#N)c23)ccc1CN1CCOCC1 [Example 9, 4-[3-Ethyl-4-(morpholin-4-ylmethyl)phenyl]-1H-pyrrolo[2,3-b]pyridine-3-carbonitrile] |
| 58 | 48 | Cn1ccc(Nc2cc(-c3ccccc3)c3c(C#N)c[nH]c3n2)n1 [Example 13, 6-[(1-Methylpyrazol-3-yl)amino]-4-phenyl-1H-pyrrolo[2,3-b]pyridine-3-carbonitrile] |
| 575 | 393 | Cc1cccc(-c2cc(Nc3nn(C)cc3C(F)(F)F)nc3[nH]cc(C#N)c23)n1 [Example 21, 6-{[1-Methyl-4-(trifluoromethyl)-1H-pyrazol-3-yl]amino}-4-(6-methylpyridin-2-yl)-1H-pyrrolo[2,3-b]pyridine-3-carbonitrile] |
| 252 | 266 | CCc1cccc(-c2ccnc3[nH]cc(C#N)c23)c1 [Example 3, 4-(3-Ethylphenyl)-1H-pyrrolo[2,3-b]pyridine-3-carbonitrile] |
| 17 | 15 | Cc1cccc(-c2cc(N)nc3[nH]cc(C#N)c23)c1 [Example 12, 6-Amino-4-(3-methylphenyl)-1H-pyrrolo[2,3-b]pyridine-3-carbonitrile] |
| 240 | 216 | N#Cc1c[nH]c2nc(N)cc(-c3ccccc3)c12 [Example 11, 6-Amino-4-phenyl-1H-pyrrolo[2,3-b]pyridine-3-carbonitrile] |
| 1 | 4 | Cc1cc(-c2cc(Nc3ccn(C)n3)nc3[nH]cc(C#N)c23)ccc1CN1CCOCC1 [Example 15, 4-[3-Methyl-4-(morpholin-4-ylmethyl)phenyl]-6-[(1-methylpyrazol-3-yl)amino]-1H-pyrrolo[2,3-b]pyridine-3-carbonitrile] |
| 215 | 145 | Cc1ccnc(-c2cc(Nc3nn(C)cc3Cl)nc3[nH]cc(C#N)c23)c1 [Example 19, 6-[(4-Chloro-1-methyl-1H-pyrazol-3-yl)amino]-4-(4-methylpyridin-2-yl)-1H-pyrrolo[2,3-b]pyridine-3-carbonitrile] |
| 78 | 620 | Cc1cc(-c2ccnc3[nH]cc(C#N)c23)ccc1CN1CCOCC1 [Example 7, 4-[3-Methyl-4-(morpholin-4-ylmethyl)phenyl]-1H-pyrrolo[2,3-b]pyridine-3-carbonitrile] |

| Compound | IC50 (LRRK2 G2019S) [nM] | IC50 (LRRK2 WT) [nM] |
| --- | --- | --- |
| Cc1cncc(-c2cc(Nc3ccn(C)n3)nc3[nH]cc(C#N)c23)c1 [Example 22, 6-[(1-Methyl-1H-pyrazol-3-yl)amino]-4-(5-methylpyridin-3-yl)-1H-pyrrolo[2,3-b]pyridine-3-carbonitrile] | 37 | 27 |
| Cc1cccc(-c2ccnc3[nH]cc(C#N)c23)c1 [Example 2, 4-(3-Methylphenyl)-1H-pyrrolo[2,3-b]pyridine-3-carbonitrile] | 195 | 170 |
| Cc1cccc(-c2cc(Nc3ccn(C)n3)nc3[nH]cc(C#N)c23)c1 [Example 14, 4-(3-Methylphenyl)-6-[(1-methylpyrazol-3-yl)amino]-1H-pyrrolo[2,3-b]pyridine-3-carbonitrile] | 2 | 1 |
| Cc1cc(-c2cc(Nc3nn(C)cc3C)nc3[nH]cc(C#N)c23)ccn1 [Example 23, 6-[(1,4-Dimethyl-1H-pyrazol-3-yl)amino]-4-(2-methylpyridin-4-yl)-1H-pyrrolo[2,3-b]pyridine-3-carbonitrile] | 108 | 215 |
| Cc1cccc(-c2cc(Nc3nn(C)cc3C)nc3[nH]cc(C#N)c23)n1 [Example 20, 6-[(1,4-Dimethyl-1H-pyrazol-3-yl)amino]-4-(6-methylpyridin-2-yl)-1H-pyrrolo[2,3-b]pyridine-3-carbonitrile] | 50 | 36 |
